Measured values reported in PMC8466755, “GPCR Pharmacological Profiling of Aaptamine from the Philippine Sponge Stylissa sp. Extends Its Therapeutic Potential for Noncommunicable Diseases” (Molecules, 2021).
In brackets after ≈: the same amount, converted by molar mass. Entries after “also recorded” stand apart in the source; their conditions may differ.

How the values were obtained:
ADRB2 = ADRB2 (Homo sapiens, UniProt P07550); assay: PathHunter β-arrestin assay, antagonist mode; format: cell-based
ADRB2, sequence (P07550 whole entry): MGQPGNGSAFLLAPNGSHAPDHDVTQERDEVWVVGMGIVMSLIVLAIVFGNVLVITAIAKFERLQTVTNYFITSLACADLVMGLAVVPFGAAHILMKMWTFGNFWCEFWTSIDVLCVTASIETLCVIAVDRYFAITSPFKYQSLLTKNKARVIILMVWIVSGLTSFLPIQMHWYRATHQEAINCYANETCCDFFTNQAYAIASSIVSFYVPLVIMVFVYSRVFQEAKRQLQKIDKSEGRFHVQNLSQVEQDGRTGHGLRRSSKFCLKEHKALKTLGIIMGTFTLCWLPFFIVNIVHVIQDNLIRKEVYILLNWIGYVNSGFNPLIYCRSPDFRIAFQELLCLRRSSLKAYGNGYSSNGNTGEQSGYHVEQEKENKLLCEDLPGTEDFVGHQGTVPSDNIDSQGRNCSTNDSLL
Experimental: (§3) The assay was performed by DiscoverX Corporation (Fremont, CA) using PathHunter β -arrestin enzyme fragment complementation (EFC) technology, in a similar way to that described elsewhere [35, 36]. The PathHunter cell lines were taken from freezer stocks according to standard procedures. A total of 20 µL of cells were seeded into white 384-well plates and incubated at 37 °C for the appropriate time prior to testing.
(§4) In this assay format, the standard agonist was added at an EC80 concentration. To the plate that contained the cells, 5 µL of the 5X sample was added and incubated for 30 min at 37 °C or room temperature. After the incubation period, 5 µL of the 6X EC80 agonist in an assay buffer was added to the cells and incubated for additional 90 or 180 min at 37 °C or room temperature.

DRD2L = DRD2L (Homo sapiens, UniProt P14416); assay: PathHunter β-arrestin assay, antagonist mode; format: cell-based
DRD2L, sequence (P14416 whole entry): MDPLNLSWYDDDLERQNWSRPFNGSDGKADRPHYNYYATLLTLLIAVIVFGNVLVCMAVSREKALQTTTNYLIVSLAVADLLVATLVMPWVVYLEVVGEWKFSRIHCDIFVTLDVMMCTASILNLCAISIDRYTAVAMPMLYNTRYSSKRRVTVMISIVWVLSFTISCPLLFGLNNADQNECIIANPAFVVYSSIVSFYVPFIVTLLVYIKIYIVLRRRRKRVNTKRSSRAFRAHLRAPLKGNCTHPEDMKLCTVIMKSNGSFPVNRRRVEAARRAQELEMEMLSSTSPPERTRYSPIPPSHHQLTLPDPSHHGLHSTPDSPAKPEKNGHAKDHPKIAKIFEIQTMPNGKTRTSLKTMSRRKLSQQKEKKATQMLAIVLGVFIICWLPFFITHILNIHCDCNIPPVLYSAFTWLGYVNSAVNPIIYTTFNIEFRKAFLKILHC
Experimental: as §3, §4

HeLa cells = system: HeLa cells; parameters: method as in PMID 20451377; conditions: read-out: cytotoxicity against HeLa cells IC50; cited from earlier work
CXCR3 = target: T1, CXCR3 (Homo sapiens, UniProt P49682); assay: PathHunter β-arrestin assay, positive allosteric modulation (PAM) mode; format: cell-based; conditions: control agonist at EC20
T1 sequence (P49682 1-368): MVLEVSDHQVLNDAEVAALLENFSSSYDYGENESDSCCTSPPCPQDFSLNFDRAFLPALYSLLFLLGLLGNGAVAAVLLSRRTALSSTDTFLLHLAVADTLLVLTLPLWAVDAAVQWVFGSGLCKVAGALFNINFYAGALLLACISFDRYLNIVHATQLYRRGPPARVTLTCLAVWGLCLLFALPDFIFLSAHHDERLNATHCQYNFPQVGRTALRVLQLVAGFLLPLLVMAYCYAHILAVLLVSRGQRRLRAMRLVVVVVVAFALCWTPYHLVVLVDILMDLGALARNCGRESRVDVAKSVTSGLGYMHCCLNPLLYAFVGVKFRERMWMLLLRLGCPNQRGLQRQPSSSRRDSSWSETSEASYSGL
Experimental: (§1) Hit validation was performed by subjecting the aaptamine to an agonist, antagonist, and positive allosteric modulation (PAM) secondary screen utilizing thirteen GPCR biosensor assays (Arrestin) against the following targets: ADRA2A, ADRA2C, ADRB2, CCR1, CCR3, CXCR3, CXCR7, DRD2L, DRD2S, DRD4, HTR1E, OPRK1, and SSTR1. The assays were performed at 10-point concentrations using three-fold serial dilutions in duplicate. For all the assay formats, the final assay vehicle concentration was 1%.
(§2) For PAM assays, the cells were preincubated with the sample followed by agonist induction at the EC20 concentration. To the cells, 5 µL of 5X sample was added and incubated for 30 min at 37 °C or room temperature. Following the incubation period, 5 µL of the 6X EC20 agonist prepared in an assay buffer was added to the cells and incubated for 90 or 180 min at 37 °C or room temperature. The percent activity of aaptamine was calculated following this formula: % modulation = 100% × ((mean RLU of test sample − mean RLU of EC20 control)/(mean RLU of MAX control ligand − mean RLU of EC20 control)).

CCR3 = target: T2, CCR3 (Homo sapiens, UniProt P51677); assay: as above; format: cell-based; conditions: control agonist at EC20
T2 sequence (P51677 1-355): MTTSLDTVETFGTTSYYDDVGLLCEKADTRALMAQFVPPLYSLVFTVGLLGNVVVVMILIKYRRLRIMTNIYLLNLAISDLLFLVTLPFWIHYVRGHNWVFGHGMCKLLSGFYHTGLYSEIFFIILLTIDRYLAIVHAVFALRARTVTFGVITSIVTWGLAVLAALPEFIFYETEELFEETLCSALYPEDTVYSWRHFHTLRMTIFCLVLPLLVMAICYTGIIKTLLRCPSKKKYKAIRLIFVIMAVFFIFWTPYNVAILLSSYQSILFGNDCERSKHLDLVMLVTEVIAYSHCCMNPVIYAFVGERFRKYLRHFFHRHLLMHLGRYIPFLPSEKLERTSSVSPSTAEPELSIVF
Experimental: as §1, §2

CCR1 = target: T3, CCR1 (Homo sapiens, UniProt P32246); assay: PathHunter β-arrestin assay, agonist mode; format: cell-based
T3 sequence (P32246 1-355): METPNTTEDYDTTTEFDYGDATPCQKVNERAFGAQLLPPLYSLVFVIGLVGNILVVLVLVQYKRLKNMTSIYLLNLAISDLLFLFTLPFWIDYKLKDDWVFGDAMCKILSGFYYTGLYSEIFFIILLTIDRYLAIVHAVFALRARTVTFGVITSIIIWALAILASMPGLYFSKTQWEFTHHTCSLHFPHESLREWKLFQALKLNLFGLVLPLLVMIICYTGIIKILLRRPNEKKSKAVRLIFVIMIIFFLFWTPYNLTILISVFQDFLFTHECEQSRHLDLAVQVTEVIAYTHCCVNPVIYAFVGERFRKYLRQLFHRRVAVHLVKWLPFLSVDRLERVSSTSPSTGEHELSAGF
Experimental: Aaptamine (20 µM) was profiled in gpcrMAX panel biosensor assays (in agonist and antagonist modes) against a panel of 168 GPCRs. The assay was performed by DiscoverX Corporation (Fremont, CA) using PathHunter β -arrestin enzyme fragment complementation (EFC) technology, in a similar way to that described elsewhere. The PathHunter cell lines were taken from freezer stocks according to standard procedures. A total of 20 µL of cells were seeded into white 384-well plates and incubated at 37 °C for the appropriate time prior to testing.
For agonist determination, aaptamine was incubated with PathHunter cell lines to induce a response. To increase the concentration, intermediate dilution from 20 µM of aaptamine was performed to generate a 5X sample in an assay buffer. Then, 5 µL of 5X sample was added to the plate with PathHunter cells and incubated for 90 or 180 min at 37 °C or room temperature. The percentage activity of aaptamine was calculated following this formula: % activity = 100% × (mean RLU of test sample − mean RLU of vehicle control)/(mean MAX control ligand − mean RLU of vehicle control).
as §1

ADRA2C = ADRA2C (Homo sapiens, UniProt P18825); assay: PathHunter β-arrestin assay, antagonist mode; format: cell-based
ADRA2C, sequence (P18825 whole entry): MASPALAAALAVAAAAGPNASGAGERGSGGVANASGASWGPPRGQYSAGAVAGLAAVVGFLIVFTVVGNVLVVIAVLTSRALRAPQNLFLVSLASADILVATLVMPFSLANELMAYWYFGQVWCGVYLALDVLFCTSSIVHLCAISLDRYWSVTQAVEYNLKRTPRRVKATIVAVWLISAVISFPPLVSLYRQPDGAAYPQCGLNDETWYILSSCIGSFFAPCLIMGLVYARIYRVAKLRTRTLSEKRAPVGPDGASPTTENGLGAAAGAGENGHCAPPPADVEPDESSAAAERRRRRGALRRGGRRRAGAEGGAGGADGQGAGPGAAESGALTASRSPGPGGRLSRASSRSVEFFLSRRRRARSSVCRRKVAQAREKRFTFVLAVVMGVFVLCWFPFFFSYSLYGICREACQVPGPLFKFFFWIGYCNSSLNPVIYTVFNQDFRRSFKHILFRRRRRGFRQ
Experimental: as §3, §4

α-adrenoreceptor = system: α-adrenoreceptor; parameters: method as in PMID 6150989; conditions: vascular smooth muscle of male albino rabbits, displacement analysis; cited from earlier work
[1] = target: mu opioid receptor (μ-OR); parameters: method as in PMID 27744679; conditions: read-out: EC50 agonist, mu opioid receptor; cited from earlier work
OPRK1 = OPRK1 (Homo sapiens, UniProt P41145); assay: PathHunter β-arrestin assay, positive allosteric modulation (PAM) mode; format: cell-based; conditions: dose-response, control agonist at EC20
OPRK1, sequence (P41145 whole entry): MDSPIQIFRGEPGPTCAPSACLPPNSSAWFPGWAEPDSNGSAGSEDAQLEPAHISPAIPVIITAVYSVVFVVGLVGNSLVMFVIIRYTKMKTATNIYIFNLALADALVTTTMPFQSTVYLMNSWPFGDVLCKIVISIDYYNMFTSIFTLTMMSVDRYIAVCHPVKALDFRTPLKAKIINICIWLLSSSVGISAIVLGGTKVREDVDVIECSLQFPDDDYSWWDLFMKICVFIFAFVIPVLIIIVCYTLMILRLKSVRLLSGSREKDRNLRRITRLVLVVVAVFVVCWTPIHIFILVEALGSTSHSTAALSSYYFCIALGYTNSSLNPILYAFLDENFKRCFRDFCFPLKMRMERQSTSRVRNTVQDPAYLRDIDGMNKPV

Candida tropicalis = system: Candida tropicalis; parameters: method as in doi:10.1016/S0040-4020(03)01069-X; conditions: antifungal; cited from earlier work
[2] = target: delta opioid receptor (δ-OR, OPRD1); parameters: method as in PMID 27744679; conditions: calcium mobilization pathway; read-out: EC50 agonist, delta opioid receptor; cited from earlier work
[3] = dose-response analysis, read-out: Dose-Response Maximal Response, % Inhibition
[4] = PAM mode, read-out: Dose-Response Maximal Response, % Activation
[5] = dose-response, read-out: EC50 (PAM)

For COc1cc2ccnc3c2c(c1OC)NC=C3 [aaptamine], the Emax (ADRB2; [3]) was 96.5%, the IC50 (ADRB2; dose-response, antagonist mode) was 0.2 µM and the “selectivity for ADRB2 over ADRA2C” value (ADRB2; from IC50 values) was > 50 fold. The Emax (DRD2L; [3]) was 73.7%, the IC50 (DRD2L; dose-response, antagonist mode) was 38.7 µM and the IC50 (HeLa cells) was 66 µM. It also gave an Emax (CXCR3; [4]) of 74.6%, an EC50 (CXCR3; [5]) of 31.8 µM and an Emax (CCR3; [4]) of 33%. The EC50 (CCR3; [5]) was 16.2 µM, the Emax (CCR1; dose-response analysis, read-out: Dose-Response Maximal Response, % Activation) was 50.2% and the EC50 (CCR1; dose-response, agonist mode) was 11.8 µM. The Emax (ADRA2C; [3]) was 104%, the IC50 (ADRA2C; dose-response, antagonist mode) was 11.9 µM and the “effective concentration, α-adrenoreceptor antagonism” value (α-adrenoreceptor) was 30 µM. The EC50 [1] was 10.1 µM, the “validation of potentiator hit under PAM conditions” value (OPRK1) was “false positives; also recorded: did not validate” and the MIC (Candida tropicalis) was 110 µM (≈ 25.1 µg/mL). The EC50 [2] was 5.1 µM.
